The results in this text go back to PMC2801561 (Cell, 2009).

Test [1] concerns the target GST-RhoBTB3 Rho domain (residues 1-220) (Homo sapiens, UniProt O94955, N138D). In words: [γ-32P]ATP hydrolysis. The class given is biochemical. The following applies: MgCl2; labelled compound; 20 nM protein.
Test [2] deals with T1, TIP47 (endogenous, K562) (human (endogenous in K562)), O60664.
T1 chain: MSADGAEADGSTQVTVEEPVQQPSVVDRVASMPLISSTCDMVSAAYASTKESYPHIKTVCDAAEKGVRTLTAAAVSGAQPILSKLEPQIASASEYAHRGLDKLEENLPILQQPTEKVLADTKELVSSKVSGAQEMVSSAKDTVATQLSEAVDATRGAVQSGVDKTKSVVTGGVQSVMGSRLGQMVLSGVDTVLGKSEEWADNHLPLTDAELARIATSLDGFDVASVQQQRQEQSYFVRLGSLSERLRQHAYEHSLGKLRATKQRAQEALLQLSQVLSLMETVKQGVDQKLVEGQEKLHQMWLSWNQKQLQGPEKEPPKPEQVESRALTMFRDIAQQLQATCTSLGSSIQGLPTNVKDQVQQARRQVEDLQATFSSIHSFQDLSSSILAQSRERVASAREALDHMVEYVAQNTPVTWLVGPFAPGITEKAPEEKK
The test is described as follows: native gel or EMSA. To be noted: remark: other sources report otherwise. On the technique in general: Mobility shift assays separate free from complexed probe on a gel.

Sequence of GST-RhoBTB3 Rho domain (residues 1-220) (O94955 1-220 N138D): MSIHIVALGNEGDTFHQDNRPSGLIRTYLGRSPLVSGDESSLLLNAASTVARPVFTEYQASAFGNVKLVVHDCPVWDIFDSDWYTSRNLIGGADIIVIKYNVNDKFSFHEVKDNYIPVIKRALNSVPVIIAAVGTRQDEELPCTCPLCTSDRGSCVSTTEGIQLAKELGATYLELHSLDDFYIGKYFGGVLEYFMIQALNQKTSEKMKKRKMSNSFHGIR

In the case of `Nc1ncnc2c1ncn2[C@@H]1O[C@H](COP(=O)(O)OP(=O)(O)OP(=O)(O)O)[C@@H](O)[C@H]1O` [ATP], the “[γ-32P]ATP hydrolysis” value in test [1] was “reverted to the D found in most other small GTPases (N138D), significantly less binding”.

B1: TIP47 (endogenous, K562), O60664 1-434 (natural protein)
chain: T1 chain
The term stoichiometry N denotes the number of molecules, sites or subunits per partner or assembly. For the molecule B1, the stoichiometry N in test [2] stood at 2.
